These molecules were tested against T1, DLK (Homo sapiens, UniProt Q12852) (assay: DLK TR-FRET assay). Conditions: 5 nM GST-tagged DLK (catalytic domain amino acid 1-520), 40 nM HIS-tagged MKK4 K131M substrate, 30 μM ATP, 60 minutes.
T1 construct: N-terminally GST-tagged DLK (catalytic domain amino acid 1-520) (Carna Bioscience); GST (N); purchased Carna Bioscience
T1 sequence (Q12852 1-520): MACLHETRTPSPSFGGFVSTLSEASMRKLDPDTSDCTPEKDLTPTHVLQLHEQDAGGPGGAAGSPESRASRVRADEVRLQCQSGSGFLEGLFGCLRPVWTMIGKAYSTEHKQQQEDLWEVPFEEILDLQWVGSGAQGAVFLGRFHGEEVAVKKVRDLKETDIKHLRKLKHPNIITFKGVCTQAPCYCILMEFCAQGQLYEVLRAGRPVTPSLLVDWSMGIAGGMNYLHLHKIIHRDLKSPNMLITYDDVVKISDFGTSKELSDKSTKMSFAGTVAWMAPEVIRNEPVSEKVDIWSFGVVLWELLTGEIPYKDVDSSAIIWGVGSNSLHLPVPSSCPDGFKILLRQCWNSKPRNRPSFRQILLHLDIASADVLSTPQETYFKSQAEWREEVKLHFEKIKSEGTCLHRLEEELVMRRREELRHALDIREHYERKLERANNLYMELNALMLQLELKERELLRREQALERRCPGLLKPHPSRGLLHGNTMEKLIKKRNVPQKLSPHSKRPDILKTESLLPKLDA
Type: biochemical
Method: DLK TR-FRET assay: DLK kinase reactions (20 μL) containing 5 nM N-terminally GST-tagged DLK (catalytic domain amino acid 1-520) (Carna Bioscience), 40 nM N-terminally HIS-tagged MKK4 K131M substrate, and 30 μM ATP in kinase reaction buffer (50 mM HEPES, pH 7.5, 0.01% Triton X-100, 0.01% Bovine γ-Globulins, 2 mM DTT, 10 mM MgCl2 and 1 mM EGTA), and testing compound 1:3 serial diluted starting at 20 uM were incubated at ambient temperature for 60 minutes in 384 well OptiPlate (Perkin Elmer). To quench kinase reactions and detect phosphorylated MKK4, 15 μL of TR-FRET antibody mixture containing 2 nM anti-phosphorylated MKK4 labeled with Europium cryptate (Cisbio) and 23 nM anti-HIS labeled with D2 (Cisbio) in detection buffer (25 mM Tris pH 7.5, 100 mM NaCl, 100 mM EDTA, 0.01% Tween-20, and 200 mM KF) was added to the reaction mixture. The detection mixture was incubated for 3 hours at ambient temperature and the TR-FRET was detected with an EnVision multilabel plate reader (Perkin-Elmer) using the LANCE/DELFIA Dual Enh label from Perkin-Elmer (excitation filter: UV2 (TRF) 320 and emission filters: APC 665 and Europium 615).

| Compound | Ki [nM] |
| --- | --- |
| N#Cc1ccnc(Nc2cc(C3(C#N)CCNCC3)cc(N3CC4CC4C3)n2)c1 (centres unmarked) [Example 40, 6′-(3-Aza-bicyclo[3.1.0]hex-3-yl)-2′-(4-cyano-pyridin-2-ylamino)-2,3,5,6-tetrahydro-1H-[4,4′]bipyridinyl-4-carbonitrile] | 0.17 |
| CC(=O)N1CCC(c2cc(Nc3cc(C4CC4)ccn3)nc(N3CCC[C@H]3C)c2)CC1 [Example 142, 1-[6′-(4-Cyclopropyl-pyridin-2-ylamino)-2′-((R)-2-methyl-pyrrolidin-1-yl)-3,4,5,6-tetrahydro-2H-[4,4′]bipyridinyl-1-yl]-ethanone] | 22 |
| N#Cc1ccnc(Nc2cc(C3CCN(C4COC4)CC3)cc(N3CC4CC(F)(F)C4C3)n2)c1 (centres unmarked) [Example 97, 2-[6-(6,6-Difluoro-3-aza-bicyclo[3.2.0]hept-3-yl)-1′-oxetan-3-yl-1′,2′,3′,4′,5′,6′-hexahydro-[4,4′]bipyridinyl-2-ylamino]-isonicotinonitrile] | 0.6 |
| C[C@@H]1CCCN1c1cc(C2(C#N)CCOCC2)cc(Nc2cc(C#N)ccn2)n1 [Example 74, 2-[4-(4-Cyano-tetrahydro-pyran-4-yl)-6-((R)-2-methyl-pyrrolidin-1-yl)-pyridin-2-ylamino]-isonicotinonitrile] | 0.2 |
| N#Cc1ccnc(Nc2cc(C3CN(CC(F)(F)F)C3)cc(Cl)n2)c1 [Example 32, 2-{6-Chloro-4-[1-(2,2,2-trifluoro-ethyl)-azetidin-3-yl]-pyridin-2-ylamino}-isonicotinonitrile] | 220 |
| Cc1cc(C2CCNCC2)cc(Nc2cc(C#N)ccn2)n1 [Example 111, 2-(6-Methyl-1′,2′,3′,4′,5′,6′-hexahydro-[4,4′]bipyridinyl-2-ylamino)-isonicotinonitrile] | 89 |
| C[C@@H]1CCCN1c1cc(C2CCOCC2)cc(Nc2cc(C(F)(F)F)ccn2)n1 [Example 125, [6-((R)-2-Methyl-pyrrolidin-1-yl)-4-(tetrahydro-pyran-4-yl)-pyridin-2-yl]-(4-trifluoromethyl-pyridin-2-yl)-amine] | 3.1 |
| N#Cc1ccnc(Nc2cc(C3CCOCC3)cc(N3CC(F)C3)n2)c1 [Example 86, 2-[6-(3-Fluoro-azetidin-1-yl)-4-(tetrahydro-pyran-4-yl)-pyridin-2-ylamino]-isonicotinonitrile] | 11.9 |
| N#Cc1ccnc(Nc2cc(C3(C#N)CCN(C4COC4)CC3)cc(N3CC4CC4C3)n2)c1 (centres unmarked) [Example 35, 6′-(3-Aza-bicyclo[3.1.0]hex-3-yl)-2′-(4-cyano-pyridin-2-ylamino)-1-oxetan-3-yl-2,3,5,6-tetrahydro-1H-[4,4′]bipyridinyl-4-carbonitrile] | 0.8 |
| Cc1cc(C2CCN(C3COC3)CC2)cc(Nc2cc(C#N)ccn2)n1 [Example 110, 2-(6-Methyl-1′-oxetan-3-yl-1′,2′,3′,4′,5′,6′-hexahydro-[4,4′]bipyridinyl-2-ylamino)-isonicotinonitrile] | 93 |
| N#Cc1ccnc(Nc2cc(C3CCOCC3)cc(N3CC4CC4C3)n2)c1 (centres unmarked) [Example 84, 2-[6-(3-Aza-bicyclo[3.1.0]hex-3-yl)-4-(tetrahydro-pyran-4-yl)-pyridin-2-ylamino]-isonicotinonitrile] | 1.6 |
| C[C@@H]1CCCN1c1cc(C2CCOCC2)cc(Nc2cc(C#N)ccn2)n1 [Example 123, 2-[6-((R)-2-Methyl-pyrrolidin-1-yl)-4-(tetrahydro-pyran-4-yl)-pyridin-2-ylamino]-isonicotinonitrile] | 0.2 |
| CC1CCCN1c1cc(C2CCN(CC3CCOCC3)C2)cc(Nc2cc(C#N)ccn2)n1 (centres unmarked) [Example 115, 2-{6-(2-Methyl-pyrrolidin-1-yl)-4-[1-(tetrahydro-pyran-4-ylmethyl)-pyrrolidin-3-yl]-pyridin-2-ylamino}-isonicotinonitrile] | 0.09 |
| CN1CCC(C#N)(c2cc(Nc3cc(C#N)ccn3)nc(N3CC4CC4C3)c2)CC1 (centres unmarked) [Example 36, 6′-(3-Aza-bicyclo[3.1.0]hex-3-yl)-2′-(4-cyano-pyridin-2-ylamino)-1-methyl-2,3,5,6-tetrahydro-1H-[4,4′]bipyridinyl-4-carbonitrile] | 0.17 |
| Cn1cc(-c2cc(C3CCOCC3)cc(Nc3cc(C(F)(F)F)ccn3)n2)cn1 [Example 122, [6-(1-Methyl-1H-pyrazol-4-yl)-4-(tetrahydro-pyran-4-yl)-pyridin-2-yl]-(4-trifluoromethyl-pyridin-2-yl)-amine] | 0.4 |
| Cc1cc(C2CCN(CC(F)(F)F)CC2)cc(Nc2cc(C#N)ccn2)n1 [Example 72, 2-[6-Methyl-1′-(2,2,2-trifluoro-ethyl)-1′,2′,3′,4′,5′,6′-hexahydro-[4,4′]bipyridinyl-2-ylamino]-isonicotinonitrile] | 150 |
| CCc1cc(C2CCN(C(C)=O)CC2)cc(Nc2cc(C(F)F)ccn2)n1 [Example 58, 1-[2′-(4-Difluoromethyl-pyridin-2-ylamino)-6′-ethyl-3,4,5,6-tetrahydro-2H-[4,4′]bipyridinyl-1-yl]-ethanone] | 64 |
| N#Cc1ccnc(Nc2cc(C3CCOCC3)cc(N3CCC4(CCOC4)C3)n2)c1 (centres unmarked) [Example 85, 2-[6-(2-Oxa-7-aza-spiro[4.4]non-7-yl)-4-(tetrahydro-pyran-4-yl)-pyridin-2-ylamino]-isonicotinonitrile] | 15 |
| N#Cc1ccnc(Nc2cc(C3CCOCC3)cc(N3CC4CC3C4)n2)c1 [Example 81, 2-[6-(2-Aza-bicyclo[2.1.1]hex-2-yl)-4-(tetrahydro-pyran-4-yl)-pyridin-2-ylamino]-isonicotinonitrile] | 11.4 |
| CC(C)(C)OC(=O)N1CC(c2cc(Cl)nc(Nc3cc(C#N)ccn3)c2)C1 [Example 41, 3-[2-Chloro-6-(4-cyano-pyridin-2-ylamino)-pyridin-4-yl]-azetidine-1-carboxylic acid tert-butyl ester] | 56 |
| N#Cc1ccnc(Nc2cc(C3CCOCC3)cc(N3CCC4CC43)n2)c1 (centres unmarked) [Example 83, 2-[6-(2-Aza-bicyclo[3.1.0]hex-2-yl)-4-(tetrahydro-pyran-4-yl)-pyridin-2-ylamino]-isonicotinonitrile] | 4.6 |
| FC1(F)CCN(c2cc(C3CN(C4COC4)C3)cc(Nc3cc(C(F)(F)F)ccn3)n2)C1 [Example 117, [6-(3,3-Difluoro-pyrrolidin-1-yl)-4-(1-oxetan-3-yl-azetidin-3-yl)-pyridin-2-yl]-(4-trifluoromethyl-pyridin-2-yl)-amine] | 0.94 |
| COC1CN(c2cc(C3CCN(C4COC4)CC3)cc(Nc3cc(C#N)ccn3)n2)C1 [Example 96, 2-[6-(3-Methoxy-azetidin-1-yl)-1′-oxetan-3-yl-1′,2′,3′,4′,5′,6′-hexahydro-[4,4′]bipyridinyl-2-ylamino]-isonicotinonitrile] | 18 |
| COc1cc(C2CCN(C(C)=O)CC2)cc(Nc2cc(C#N)ccn2)n1 [Example 21, 2-(1′-Acetyl-6-methoxy-1′,2′,3′,4′,5′,6′-hexahydro-[4,4′]bipyridinyl-2-ylamino)-isonicotinonitrile] | 12 |
| COC1CCN(c2cc(C3CCN(C4COC4)CC3)cc(Nc3cc(C#N)ccn3)n2)C1 (centres unmarked) [Example 88, 2-[6-(3-Methoxy-pyrrolidin-1-yl)-1-oxetan-3-yl-1′,2′,3′,4′,5′,6′-hexahydro-[4,4′]bipyridinyl-2-ylamino]-isonicotinonitrile] | 2.8 |
| COC1CN(c2cc(C3CCOCC3)cc(Nc3cc(C#N)ccn3)n2)C1 [Example 87, 2-[6-(3-Methoxy-azetidin-1-yl)-4-(tetrahydro-pyran-4-yl)-pyridin-2-ylamino]-isonicotinonitrile] | 51 |

Source: US9399636B2, “Substituted dipyridylamines and uses thereof” (Genentech, Inc., priority 2012, dated 2016)
